Measured values published in ChEMBL document CHEMBL1201862, “PubChem BioAssay data set” (2004).
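Results reflect a 48-hour exposure of cells in 96-well plates to compound at five concentrations. GI50 = concentration required for 50% inhibition of growth.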 Activity calls are given as the source filed them. Rule as the data show it: active = GI50 up to about 1.1 µM and inactive = higher.

Key:
Experiment in all cases: NCI tumour cell line growth inhibition, 48 h
KM12 = test system: KM12
OVCAR-5 = test system: OVCAR-5
UO-31 = test system: UO-31
BT-549 = test system: BT-549
SF-539 = test system: SF-539
MDA-MB-435 = test system: MDA-MB-435
UACC-257 = test system: UACC-257
SF-268 = test system: SF-268
T47D = test system: T47D
HOP-92 = test system: HOP-92
MDA-N = test system: MDA-N
SK-MEL-5 = test system: SK-MEL-5
SW-620 = test system: SW-620
RXF 393 = test system: RXF 393
K562 = test system: K562
SK-MEL-2 = test system: SK-MEL-2
MDA-MB-231 = test system: MDA-MB-231
ACHN = test system: ACHN
HOP-62 = test system: HOP-62

Measured: GI50

Cc1nc2ccc(S(=O)(=O)O)cc2c(=O)n1-c1ccc(C(=O)NN2C(=O)C(Cl)C2c2ccccc2O)cc1 (stereo not drawn)
inactive: KM12 > 100 µM | OVCAR-5 > 100 µM | UO-31 > 100 µM | BT-549 > 100 µM | SF-539 92.3 µM | MDA-MB-435 > 100 µM | UACC-257 > 100 µM | SF-268 > 100 µM | T47D > 100 µM | HOP-92 > 100 µM | MDA-N > 100 µM | SK-MEL-5 > 100 µM | SW-620 > 100 µM | RXF 393 > 100 µM | K562 > 100 µM | SK-MEL-2 > 100 µM | MDA-MB-231 > 100 µM | ACHN > 100 µM | HOP-62 53.5 µM

O=C1C/C(=C\O)C(=O)c2ccccc2N1
inactive: KM12 > 100 µM | OVCAR-5 > 100 µM | UO-31 > 100 µM | BT-549 > 100 µM | SF-539 > 100 µM | MDA-MB-435 > 100 µM | UACC-257 > 100 µM | SF-268 > 100 µM | T47D 61.8 µM | HOP-92 > 100 µM | MDA-N > 100 µM | SK-MEL-5 > 100 µM | RXF 393 > 100 µM | K562 > 100 µM | SK-MEL-2 > 100 µM | MDA-MB-231 > 100 µM | ACHN > 100 µM | HOP-62 > 100 µM

C=C(Cl)C(Cl)(CCl)CCC(Br)C(C)(C)Br (stereo not drawn)
inactive: KM12 > 10 µM | OVCAR-5 > 10 µM | UO-31 > 10 µM | BT-549 > 10 µM | SF-539 > 10 µM | MDA-MB-435 > 10 µM | SF-268 > 10 µM | T47D > 10 µM | HOP-92 > 10 µM | MDA-N > 10 µM | SK-MEL-5 > 10 µM | SW-620 > 10 µM | RXF 393 > 10 µM | K562 > 10 µM | SK-MEL-2 > 10 µM | MDA-MB-231 > 10 µM | ACHN > 10 µM | HOP-62 > 10 µM

CCN(C(=O)N[C@@H](CC(C)C)C(=O)NCC(=O)OC)c1ccccc1
inactive: KM12 > 100 µM | OVCAR-5 > 100 µM | UO-31 > 100 µM | BT-549 > 100 µM | SF-539 41 µM | MDA-MB-435 > 100 µM | UACC-257 25.9 µM | T47D > 100 µM | HOP-92 > 100 µM | MDA-N > 100 µM | SK-MEL-5 75.5 µM | SW-620 > 100 µM | RXF 393 54 µM | K562 38.4 µM | SK-MEL-2 61.4 µM | MDA-MB-231 > 100 µM | ACHN > 100 µM | HOP-62 > 100 µM
